Consider nine molecules from patent publication US10501428B2, “Thymoquinone derivatives for treatment of cancer” (United Arab Emirates University, priority 2014, dated 2019).

Molecules are shown by their SMILES. Read-outs that look alike come from different tables or passages of the source.

The subject of data set [1] is G-quadruplex DNA. Description: Melting temperature curves of G-quadruplex and TQ complexes by CD. It is filed as binding, human. As to conditions: for Tm: equimolar G-quadruplex and TQ 3.93×10^−6 M, Tris-KCl buffer pH 7.4, CD at 293 nm; for Δ Tm: versus G-quadruplex DNA alone (70.0 ° C.). Here is the method:
(§1) A 2 ml of the stock single stranded DNA; 5′-[…]-3′ (SEQ ID NO: 1) was gently heated up to 95° C., incubated for 10 minutes and then left to cool to room temperature. Resultant solution was kept in fridge at 4° C. overnight.
Melting temperature curves for G-quadruplex and their TQs adducts were constructed using CD spectral measurements.
A 1 ml telomeric G-quadruplex (3.93×10^−6 M) in Tris-KCl-buffer pH7.4, was heated in 1-5° C. increments in the range 25-95° C. using 5 minutes incubation time intervals. CD spectra were recorded in the range 200-400 nm using 50 nm/min, 1 nm band width and 3 accumulations at each point. CD spectra were baseline corrected against blank solution and CD intensities at 293 nm were plotted versus temperature.
Similarly G-quadruplex-TQ1-8 1 mL complex solutions that were 3.93×10^−6 M of G-quadruplex and 3.93×10−6 M of TQs were heated up to 95° C. and measured. The solutions were prepared by mixing equi-molar amounts of G-quadruplex (27.3 μL, 1.44×10^−4 M) with TQ compounds 1-8 (39.30 μL, 1×10^−4 M) in 1 mL KCl-buffer, pH 7.4. CD spectra were baseline corrected and CD intensities at 293 nm were plotted versus temperature.

Data set [2] deals with G-quadruplex DNA. Description: Fluorescence titration of TQs with G-quadruplex DNA (modified Scatchard). It is filed as binding, human. As to conditions: non-linear regression, modified Scatchard equation. The procedure: as §1
To 3 ml of 5×10^−5 M of each of compounds TQ1-8 in Tris-KCl-buffer, pH 7.4, successive portions of G-quadruplex DNA (1.44×10^−4 M) were added. After each addition, the TQ solution was stirred for 20 seconds, incubated for 3 min and its emission was scanned in the range 300-600 nm using excitation Amax of 280 nm and slit width of 10.00 nm. Titration stopped when no change in fluorescence intensity was observed.
Scatchard plots were used to determine the binding affinity of the thymoquinone derivative compounds to G-quadruplex based on fluorescence titration, keeping the compounds concentration constant and varying DNA amounts.
Dependant binding sites may have synergistic (the first bound ligand encourage the next binding one) or antagonistic (the first bound ligand suppress the next binding one) effects on each other, a phenomenon known as the neighbor exclusion effect. Non-linear regression based on a modified Scatchard equation gave the binding constants and number of binding sites shown in Table 3. Compound TQ8 has shown the highest binding constant (1.33×10^7 M^−1) and compound TQ5 has shown the lowest binding constant (7.76×10^4 M^−1)

The test system of data set [3] is Human lung cancer cells A549. The data set is described as follows: CellTiter-Glo cell viability assay, A549 lung cancer cells. Format: cell-based. The conditions noted are these: for cytotoxicity at 100 µM / IC50: Homo sapiens; for cytotoxicity at 100 µM: A549, 100 μM, relative to control (DMSO), read-out: decrease in cell viability; for IC50: A549, 24 hours. Here is the method: (§2) Human lung cancer cells A549, human breast cancer cells MDA-MB-231 and colorectal cancer cells HT29, were used to test the antiproliferative activity of the synthesised compounds. Human lung cancer cells A549 were maintained in RPMI 1640 medium (Hyclone Laboratories, USA), human breast cancer cells MDA-MB-231 and colorectal cancer cells HT29 were maintained in DMEM medium (Hyclone Laboratories, USA). All media was supplemented with antibiotics (penicillin 50 U/ml; streptomycin 50 ug/ml) (Hyclone Laboratories, USA).
(§3) Cells were seeded at a density of 5,000 cells/well into 96-well plates. After 24 h, cells were treated for 24 and 48 h with different concentrations of compounds TQ1-5 and 8 (5-100 μM), in triplicate. Control cultures were treated with 0.1% DMSO. The effect of the compounds TQ1-8 on cell viability was determined using the CellTiter-Glo Luminescent Cell Viability assay (Promega Corporation, Madison, USA), based on quantification of ATP, which signals the presence of metabolically active cells. The luminescent signal was measured using the GLOMAX Luminometer system. Data were presented as proportional viability (%) by comparing the treated group with the untreated cells, the viability of which is assumed to be 100%.

Data set [4] concerns colorectal cancer cells HT29. Description: CellTiter-Glo cell viability assay, HT29 colorectal cancer cells. Format: cell-based. The conditions noted are these: Homo sapiens, HT-29; for cytotoxicity at 100 µM: HT29, 100 μM, read-out: loss in cell viability. Here is the method: as §2, §3
(In general: In ATP-based viability assays light output follows the ATP content of the culture.)

For data set [5], the system named is human breast cancer cells MDA-MB-231. The data set is described as follows: CellTiter-Glo cell viability assay, MDA-MB-231 breast cancer cells. It is filed as cell-based. The conditions noted are these: for cytotoxicity at 100 µM: MDA-MB-231, 100 μM, read-out: loss in cell viability. The procedure: as §2, §3
The test system of data set [6] is Human lung cancer cells A549. The conditions noted are these: value has been reported, read-out: IC50 A549 (parent TQ, reported); cited from earlier work.

The melting point is the temperature, or range, at which the solid turns liquid. As a reminder, the IC50 is the concentration that gives 50% inhibition. With `CC1=C(NCCN2CCOCC2)C(=O)C(C(C)C)=CC1=O` [TQ1, 5-Isopropyl-2-methyl-3-((2-morpholinoethyl)amino)-1,4-benzoquinone], the melting point is 92 to 95 °C. Further, in the data set with G-quadruplex DNA [1], the Tm turned out to be 79.0 °C and the “Δ Tm” value came out at 9.0 °C. The “binding constant K” value in the data set with G-quadruplex DNA [2] stood at 113000 M⁻¹. Moreover, in data set [3] (24 hours), the cytotoxicity at 100 µM came out at 15%. Moreover, the cytotoxicity at 100 µM in data set [3] (48 hours exposure) amounted to 33%. In data set [3], inhibition was half-maximal at 74.3 µM (IC50).

Take `CC1=C(NCc2ccc(C(F)(F)F)cc2)C(=O)C(C(C)C)=CC1=O` [TQ2, 5-Isopropyl-2-methyl-3-(4-trifluoromethylbenzylamino)-1,4-benzoquinone]: the melting point was 110.5 to 112 °C. Further, in the data set with G-quadruplex DNA [1], the Tm came out at 76.0 °C and the “Δ Tm” value was found to be 6.0 °C. Moreover, the “binding constant K” value with G-quadruplex DNA [2] was determined as 567000 M⁻¹. For the same molecule, in data set [3] (24 hours), the cytotoxicity at 100 µM turned out to be 32%. The cytotoxicity at 100 µM in data set [3] (48 hours exposure) came to 57%. The same molecule showed an IC50 in data set [3] of 84.3 µM.

Regarding `CC1=C(NCc2ccc(F)cc2)C(=O)C(C(C)C)=CC1=O` [TQ3, 5-Isopropyl-2-methyl-3-(4-fluorobenzylamino)-1,4-benzoquinone], the melting point lay in the range of 80 to 82.5 °C. In the data set with G-quadruplex DNA [1], the Tm stood at 76.0 °C and the “Δ Tm” value was found to be 6.0 °C. Moreover, the “binding constant K” value with G-quadruplex DNA [2] was 330000 M⁻¹. In addition, in data set [3] (24 hours), the cytotoxicity at 100 µM came to 29%. The cytotoxicity at 100 µM in data set [3] (48 hours exposure) is 64%. Besides, the IC50 in data set [3] was 83.2 µM.

As for `CC1=C(NCc2ccccc2)C(=O)C(C(C)C)=CC1=O` [TQ4, 5-Isopropyl-2-methyl-3-(benzylamino)-1,4-benzoquinone], the melting point was in the range of 83 to 84.5 °C. In the data set on G-quadruplex DNA [1], the Tm stood at 76.0 °C and the “Δ Tm” value worked out at 6.0 °C. Besides, the “binding constant K” value in the data set on G-quadruplex DNA [2] came to 95200 M⁻¹. Moreover, in data set [3] (24 hours), the cytotoxicity at 100 µM was 17%. For the same molecule, the cytotoxicity at 100 µM in data set [3] (48 hours exposure) was 58%. The molecule further had an IC50 in data set [3] of 88.7 µM.

Take `CC1=C(NCc2cc(C(F)(F)F)cc(C(F)(F)F)c2)C(=O)C(C(C)C)=CC1=O` [TQ5, 5-Isopropyl-2-methyl-3-(3,5-ditrifluoromethylbenzylamino)-1,4-benzoquinone]: the melting point was in the range of 111 to 114 °C. In the data set on G-quadruplex DNA [1], the Tm is 77.0 °C and the “Δ Tm” value is 7.0 °C. The “binding constant K” value in the data set on G-quadruplex DNA [2] came to 77600 M⁻¹. In addition, the cytotoxicity at 100 µM in data set [3] (24 hours) turned out to be 33%. Further, the cytotoxicity at 100 µM in data set [3] (48 hours exposure) stood at 48%. This molecule registered an IC50 in data set [3] of 105 µM.

With `CC1=C(NCCO)C(=O)C(C(C)C)=CC1=O` [TQ6, 5-isopropyl-2-methyl-3-(2-hydroxyethylamino)-1,4-benzoquinone], in the data set with G-quadruplex DNA [1], the Tm came out at 80.0 °C and the “Δ Tm” value was 10.0 °C. Besides, the “binding constant K” value with G-quadruplex DNA [2] was 1.49e+06 M⁻¹.

Consider `COc1ccc(CNC2=C(C)C(=O)C=C(C(C)C)C2=O)cc1OC` [TQ7, 5-isopropyl-2-methyl-3-(3,4-dimethoxylbenzylamino)-1,4-benzoquinone], for which, in the data set with G-quadruplex DNA [1], the Tm came to 77.0 °C and the “Δ Tm” value was found to be 7.7 °C. Also, in the data set with G-quadruplex DNA [2], the “binding constant K” value was determined as 1.17e+06 M⁻¹.

The molecule `CC1=C(N)C(=O)C(C(C)C)=CC1=O` [TQ8, 3-amino-5-isopropyl-2-methyl-1,4-benzoquinone] gave a melting point of 68 to 72 °C. Further, the cytotoxicity at 100 µM in data set [4] (24 hours exposure) is 97%. Further, in data set [4] (48 hours exposure), the cytotoxicity at 100 µM worked out at 99%. Also, in data set [4] (HT29, 24 hours), the IC50 came out at 55.8 µM. Further, the cytotoxicity at 100 µM in data set [5] (24 hours exposure) worked out at 83%. In addition, the cytotoxicity at 100 µM in data set [5] (48 hours exposure) is 98%. In data set [5] (MDA-MB-231, 24 hours), this molecule yielded an IC50 of 45.1 µM. Moreover, the “potency compared to the parent TQ molecule” value in data set [3] (A549 IC50 comparison) is at least 200%. Moreover, in data set [3] (24 hours), the cytotoxicity at 100 µM is 99%. Further, the cytotoxicity at 100 µM in data set [3] (48 hours exposure) turned out to be 100%. Also, inhibition in data set [3] was half-maximal at 35 µM (IC50).

Regarding `CC1=CC(=O)C(C(C)C)=CC1=O` [TQ, 2-isopropyl-5-methyl-1,1,4-benzoqinone], in data set [6], the IC50 is 78.3 µM.
